# Test results reported in patent US6376243B1, “DNA encoding a human serotonin receptor (5-HT4B) and uses thereof” (Synaptic Pharmaceutical Corporation, priority 1992, dated 2002).
# Where two headings read alike, the source gives them in different places.
# Columns and labels:
# [1] = molecular target: T1, clone hp78a (human 5-HT4B receptor) (Homo sapiens, UniProt P34969); assay: Competition of [3H]5-HT binding to membranes of cells transiently expressing clone hp78a
# [2] = molecular target: human 5-HT4B receptor (Homo sapiens, UniProt P34969); assay: cAMP formation in intact Cos-7 cells transiently expressing the receptor; details: for inhibition at 10 µM: COS-7, read-out: % INHIBITION OF 5-HT RESPONSE
# Chain of human 5-HT4B receptor (P34969 1-445 isoform P34969-2): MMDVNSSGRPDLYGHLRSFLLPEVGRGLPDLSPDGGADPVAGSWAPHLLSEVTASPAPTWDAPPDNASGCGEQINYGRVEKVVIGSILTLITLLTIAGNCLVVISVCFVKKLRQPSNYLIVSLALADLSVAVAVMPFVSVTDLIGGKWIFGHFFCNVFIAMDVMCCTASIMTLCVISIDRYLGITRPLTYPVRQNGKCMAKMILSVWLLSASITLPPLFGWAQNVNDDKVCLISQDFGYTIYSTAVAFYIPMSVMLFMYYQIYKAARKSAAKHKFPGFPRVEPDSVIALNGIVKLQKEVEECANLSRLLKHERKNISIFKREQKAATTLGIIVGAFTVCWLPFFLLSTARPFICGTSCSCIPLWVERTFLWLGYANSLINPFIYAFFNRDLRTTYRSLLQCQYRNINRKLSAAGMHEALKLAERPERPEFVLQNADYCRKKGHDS
# [3] = molecular target: T1, clone hp78a (human 5-HT4B receptor); assay: [3H]5-HT saturation binding to membranes of transiently transfected Cos-7 cells; details: 100 μM Gpp(NH)p; membranes from transient transfectants
# [4] = read-out: Apparent dissociation constant Ki
# [5] = 5 nM [3H]5-HT, 30 min at 37° C., mean ± S.E.M.
# [6] = Apparent dissociation constant Ki
# [7] = Apparent dissociation constant Ki, 5 nM [3H]5-HT, seven concentrations of competitor, 30 min at 37° C., Cheng-Prusoff, mean ± S.E.M. from 2-3 determinations
# [8] = competitor 100 nM, 5 nM [3H]5-HT, 30 min at 37° C.
# T1 sequence (P34969 1-445 isoform P34969-2): as above
compound,measurement,setting,value
CC(C)NCC(O)COc1cccc2[nH]ccc12 (racemic) [Pindolol],PERCENT INHIBITION of specific [3H]5-HT binding,[1],11%
"c1ccc2c(N3CCNCC3)cccc2c1 [1-NP, 1-naphthylpiperazine]",PERCENT INHIBITION of specific [3H]5-HT binding,[1],44%
CCN(CC)C(=O)[C@@H]1C=C2c3cccc4[nH]c(Br)c(c34)C[C@H]2N(C)C1 [2-Br-LSD],FOLD cAMP STIMULATION relative to basal levels,"[2]; drug 1 μM, intact Cos-7 cells",0 fold
same,Hill coefficient nH,[1],1.02 ± 0.16
same,Ki,[1]; [4],39 ± 7 nM
Cc1[nH]c2ccc(O)cc2c1CCN [2-Me-5-HT],PERCENT INHIBITION of specific [3H]5-HT binding,[1],7%
"NCCc1c[nH]c2ccc(O)cc12 [5-HT, 5-hydroxytryptamine]",inhibition of basal or FSK-stimulated cAMP release,"[2]; 5-HT 1 μM, transfected Cos-7 cells",not observed
same,increase in cAMP release over basal levels,[2]; discussion statement,20 fold
same,Ki in binding assays higher affinity than EC50 in functional assays,[2]; ratio of EC50 to Ki,approximately 100 fold
same,Hill coefficient nH,[1]; [5],1.07 ± 0.07
COc1ccc2[nH]cc(CCN)c2c1 [5-MeOT],agonist activity on cAMP,[2],potent agonists
same,Hill coefficient nH,[1],1.00 ± 0.03
CC(C)C[C@H]1C(=O)N2CCC[C@H]2[C@]2(O)O[C@](NC(=O)[C@@H]3C=C4c5cccc6[nH]c(Br)c(c56)C[C@H]4N(C)C3)(C(C)C)C(=O)N12 [Bromocriptine],Hill coefficient nH,[1],1.15
same,Ki,[1]; [6],135 nM
CN(C)CCc1c[nH]c2ccc(O)cc12 [Bufotenin],PERCENT INHIBITION of specific [3H]5-HT binding,[1],40%
CN1CCC(=C2c3ccccc3C=Cc3ccccc32)CC1 [Cyproheptadine],PERCENT INHIBITION of specific [3H]5-HT binding,"[1]; competitor 30 nM, 5 nM [3H]5-HT, 30 min at 37° C.",36%
CCCN(CCC)CCc1c[nH]c2ccc(C(N)=O)cc12 [DP-5-CT],Hill coefficient nH,[1],0.78
same,Ki,[1]; [4],62 nM
CCCN(CCC)C1CCc2cccc(O)c2C1 (centres unmarked) [DPAT],Hill coefficient nH,[1]; [5],0.76
CN1C[C@H](C(=O)N[C@]2(C)O[C@@]3(O)[C@@H]4CCCN4C(=O)[C@H](Cc4ccccc4)N3C2=O)C[C@@H]2c3cccc4[nH]cc(c34)C[C@H]21 [Dihydroergotamine],Hill coefficient nH,[1],1.36 ± 0.08
same,Ki,[1]; [6],6 ± 0.2 nM
same,Ki,[1]; [4],5 to 10 nM
CN1C[C@H](C(=O)N[C@]2(C)O[C@@]3(O)[C@@H]4CCCN4C(=O)[C@H](Cc4ccccc4)N3C2=O)C=C2c3cccc4[nH]cc(c34)C[C@H]21 [Ergotamine],PERCENT INHIBITION of specific [3H]5-HT binding,[1],79%
"Nc1nc2c(ncn2[C@@H]2O[C@H](COP(=O)(O)OP(=O)(O)NP(=O)(O)O)[C@@H](O)[C@H]2O)c(=O)[nH]1 [Gpp(NH)p, 5′-guanylylimidodiphosphate]",reduction of high affinity [3H]5-HT binding,[3],75%
CN1[C@@H]2CC[C@H]1C[C@@H](OC(=O)c1c[nH]c3ccccc13)C2 [ICS 203930],inhibitory effect on the 5-HT cAMP response,[2]; 100 μM,weak inhibitory effect
same,activity at the 5-HT4B receptor,[2]; discussion statement,either poorly active or inactive
same,Ki,"[1]; read-out: Apparent dissociation constant Ki, 5 nM [3H]5-HT, seven concentrations of competitor, 30 min at 37° C., Cheng-Prusoff, mean ± S.E.M. from 2-3 determinations",> 500 nM
O=C(c1ccc(F)cc1)C1CCN(CCn2c(=O)[nH]c3ccccc3c2=O)CC1 [Ketanserin],Ki,[1]; [7],> 100 nM
same,PERCENT INHIBITION of specific [3H]5-HT binding,[1]; [8],17%
CN1C[C@@H](NS(=O)(=O)N(C)C)C[C@@H]2c3cccc4c3c(cn4C)C[C@H]21 [Mesulergine],Hill coefficient nH,[1]; [5],1.09
same,Ki,[1]; [7],9.6 nM
CN1C[C@H](CNC(=O)OCc2ccccc2)C[C@@H]2c3cccc4c3c(cn4C)C[C@H]21 [Metergoline],antagonism of the 5-HT cAMP response,[2]; 10 μM,almost completely
same,inhibition at 10 µM,[2],96 ± 1%
same,Hill coefficient nH,[1]; [5],1.23
same,Ki,[1]; [7],5.5 nM
CC[C@@H](CO)NC(=O)[C@@H]1C=C2c3cccc4c3c(cn4C)C[C@H]2N(C)C1 [Methysergide],antagonism of the 5-HT cAMP response,[2],almost completely
same,inhibition at 10 µM,[2],82 ± 1.5%
same,PERCENT INHIBITION of specific [3H]5-HT binding,[1],51%
Cc1nc2sccn2c(=O)c1CCN1CCC(=C(c2ccc(F)cc2)c2ccc(F)cc2)CC1 [Ritanserin],PERCENT INHIBITION of specific [3H]5-HT binding,"[1]; competitor 10 nM, 5 nM [3H]5-HT, 30 min at 37° C.",32%
O=C(CCCN1CCC2(CC1)C(=O)NCN2c1ccccc1)c1ccc(F)cc1 [Spiperone],PERCENT INHIBITION of specific [3H]5-HT binding,[1]; [8],64%
CNS(=O)(=O)Cc1ccc2[nH]cc(CCN(C)C)c2c1 [Sumatriptan],Hill coefficient nH,[1]; [5],0.88 ± 0.03
same,Ki,[1]; [7],764 ± 29 nM
NCCc1c[nH]c2ccccc12 [Tryptamine],PERCENT INHIBITION of specific [3H]5-HT binding,[1],32%
COc1cc(N)c(Cl)cc1C(=O)NC1CN2CCC1CC2 (centres unmarked) [Zacopride],activity at the 5-HT4B receptor,[2]; discussion statement,either poorly active or inactive
same,Ki,[1]; [7],> 500 nM
same,PERCENT INHIBITION of specific [3H]5-HT binding,[1]; [8],0%
COc1cc(N)c(Cl)cc1C(=O)NC1CCN(CCCOc2ccc(F)cc2)CC1OC (centres unmarked) [cisapride],activity at the 5-HT4B receptor,[2]; discussion statement,either poorly active or inactive
